# Source: US11033496B2, “Nanoparticles for delivery of chemopreventive agents” (OHIO STATE INNOVATION FOUNDATION, priority 2017, dated 2021)
# Where two headings read alike, the source gives them in different places.
# Test system: human OSCC cells (three oral SCC cell lines)
# Format: cell-based
# Settings: for maximum uptake (fluorescence intensity): 6 h
# Description: Mean±S.D., n=18, *=p<0.01, ‡=p,0.001, Mann Whitney U 2-tailed test.
# The internalization of free-IDA was more rapid than IDA-NP after 1-hour at 1000 nM (free-IDA: 21.08±5.33 vs. IDA-NP: 12.87±4.32). However, the maximum uptake of IDA-NP was greater than free-IDA after 6 hours at 2500 nM (IDA-NP: 43.53±8.42 vs. free-IDA: 27.61±5.66) and 5000 nM (IDA-NP: 64.44±12.71 vs. free-IDA: 31.06±7.24). [Data collected from three oral SCC cell lines, mean±SD, n=18, *P≤0.01 †P≤0.002, ‡P≤0.001; IDA-NP samples compared to free-IDA samples [Mann-Whitney U two-tailed Test].
compound,measurement,setting,value
"CC(=O)[C@]1(O)Cc2c(O)c3c(c(O)c2[C@@H](O[C@H]2C[C@H](N)[C@H](O)[C@H](C)O2)C1)C(=O)c1ccccc1C3=O [free-IDA, idarubicin]",internalization / cellular uptake (fluorescence intensity),"1 h, 1000 nM",21.08±5.33
same,maximum uptake (fluorescence intensity),2500 nM,27.61±5.66
same,maximum uptake (fluorescence intensity),5000 nM,31.06±7.24
